# According to patent US9340821B2, “Specific fluorescent probe based on albumin pseudo-esterase hydrolysis reaction and use thereof” (DALIAN INSTITUTE OF CHEMICAL PHYSICS, CHINESE ACADEMY OF …, priority 2013, dated 2016):
# Assays:
# HSA [1] = biological target: T1, HSA (Homo sapiens, UniProt P02768); test: Quantitative analysis of albumin in human plasma sample; parameters: from tissue; host or cells: human plasma (A3); human urine (A4); conditions: human plasma diluted 200 times in PBS pH 7.4, probe 10 μM, 45° C., 30 min
# T1 sequence (P02768 25-609): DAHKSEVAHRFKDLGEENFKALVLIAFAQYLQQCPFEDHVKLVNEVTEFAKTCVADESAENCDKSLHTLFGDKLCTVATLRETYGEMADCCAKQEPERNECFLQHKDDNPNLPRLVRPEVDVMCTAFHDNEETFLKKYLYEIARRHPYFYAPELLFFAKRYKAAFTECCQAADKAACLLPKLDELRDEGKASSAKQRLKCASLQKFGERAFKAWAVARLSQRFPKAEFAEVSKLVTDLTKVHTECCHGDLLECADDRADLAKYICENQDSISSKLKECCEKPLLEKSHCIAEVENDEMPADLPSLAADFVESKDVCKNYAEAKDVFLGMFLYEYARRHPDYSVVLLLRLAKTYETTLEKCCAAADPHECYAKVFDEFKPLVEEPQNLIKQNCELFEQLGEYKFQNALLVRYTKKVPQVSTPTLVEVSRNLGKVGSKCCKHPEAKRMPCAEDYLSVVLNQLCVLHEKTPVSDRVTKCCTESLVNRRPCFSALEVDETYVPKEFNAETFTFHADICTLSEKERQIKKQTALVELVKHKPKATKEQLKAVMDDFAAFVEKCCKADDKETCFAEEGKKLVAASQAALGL
# Procedure: (1) 1 μL of human plasma sample was diluted to 200 times by PBS (pH 7.4, 10 mM), then samples were incubated turmoil at 45° C. for 10 min.
# (2) 4 μL fluorescent probe B (0.5 mM) was added to the above solution to make the final concentration of the fluorescent probe to 10 μM, and then samples were incubated at 45° C.
# (3) After 30 min, 200 μL of ice-cold CH3CN was added to the sample and stirred, and then the reaction was stopped.
# (4) Detecting the fluorescence intensity of probe B (λex=342 nm, λem=416 nm) and hydrolysate B1 (λex=452 nm, λem=564 nm) at corresponding wavelength and calculating the fluorescence intensity ratio of B1 to B, the fluorescence ratio was substituted into working curve from example 2, concentration of HSA in plasma albumin was calculated as […].
# HSA [2] = biological target: T1, HSA; test: Quantitative analysis of HSA in recombinant expression system; conditions: 1 mg/mL recombinant HSA in PBS pH 7.4, probe 10 μM, 37° C., 30 min
# Procedure: (1) 10 mg recombinant HSA was weighted and dissolved in PBS (pH=7.4), configuring to 1 mg/mL albumin solution at 37° C.
# (2) 20 μL fluorescent probe D (0.5 mM) was added to the above solution to make the final concentration of the fluorescent probe to 10 μM, and then samples were incubated turmoil at 37° C. for 30 min, 1 mL ice-cold CH3CN was added to the sample and stirred for 15 second, then the reaction stopped.
# (3) Detecting the fluorescence intensity of probe D (λex=342 nm, λem=416 nm) and hydrolysate D1 (λex=452 nm, λem=564 nm) at corresponding wavelength and the fluorescence intensity ratio of D1 to D was calculated.
# (4) Based on the working curve, the concentration of HSA in this sample (1 mg/mL recombinant HSA solution) was calculated as 14.9 μM.
# HSA [3] = biological target: T1, HSA; test: Quantitative analysis of albumin in urine sample; conditions: human urine diluted with PBS pH 7.4, probe 10 μM, 37° C., 30 min
# Procedure: (1) 490 μL of human urine sample was diluted by 490 μL PBS (pH 7.4, 10 mM), and then samples were incubated at 45° C. for 10 min.
# (2) 20 μL fluorescent probe C (0.5 mM) was added to the above solution to make the final concentration of the fluorescent probe to 10 μM, and then samples were incubated turmoil at 37° C. for 30 min, 1 mL ice-cold CH3CN was added to the sample and stirred for 15 second, then the reaction was stopped.
# (3) Detecting the fluorescence intensity of probe C (λex=342 nm, λem=416 nm) and hydrolysate C1 (λex=452 nm, λem=564 nm) at corresponding wavelength and the fluorescence intensity ratio of C1 to C was calculated.
# (4) Finding the corresponding albumin level in the working curve, concentration of HSA in the sample was calculated as 48 mg/L.
structure (smiles),measurement,setting,value
"CCCCN1C(=O)c2cccc3c(OC(=O)c4ccc(C)cc4)ccc(c23)C1=O [Probe B, N-n-butyl-1,8-naphthalimide-4-(4-methylphenylbenzoate)]",concentration of HSA in plasma calculated from fluorescence ratio,HSA [1],46.2 mg/mL
"CCCCN1C(=O)c2cccc3c(OC(=O)c4ccc(OC)cc4)ccc(c23)C1=O [Probe D, N-n-butyl-1,8-naphthalimide-4-(4-methoxyphenylbenzoate)]",concentration of HSA in recombinant HSA solution calculated from working curve,HSA [2],14.9 µM
"O=C(O)CCCN1C(=O)c2cccc3c(OC(=O)c4ccc(-c5ccccc5)cc4)ccc(c23)C1=O [Probe C, N-3-carboxy propyl-1,8-naphthalimide-4-phenylbenzoate]",concentration of HSA in urine sample calculated from working curve,HSA [3],48 mg/L
